Measurements taken from US20240308976A1, “COMPOUNDS THAT MEDIATE PROTEIN DEGRADATION AND USES THEREOF” (Monte Rosa Therapeutics, Inc., priority 2021, published 2024).

Columns and labels:
[1] = target: CRBN-DDB1 (Homo sapiens, UniProt Q96SW2); assay: Compound binding to CRBN by HTRF assay; details: CRBN-DDB1 2.5 nM, Cy5-Thalidomide 100 nM, 30 min at ambient temperature; read-out: HTRF Class (Cereblon binding, HTRF IC50)
Procedure, shortened: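 Cy5-thalidomide (100 nM) displacement from His-tagged CRBN-DDB1 (2.5 nM) read by terbium-cryptate HTRF (665/620 nm), in 20 mM HEPES, 20 mM NaCl, 0.2 mM TCEP, 0.2 mM EDTA, 0.005% Tween20. Compounds tested as 10-point 1:3 series, 30 min at ambient temperature. Signal normalised to DMSO and lenalidomide controls; IC50 fitted, Ki by Cheng-Prusoff.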

[2] = target: T1, GSPT1 (Homo sapiens, UniProt P15170+Q96SW2); assay: Immunofluorescence assay for activity to degrade GSPT1 in CAL-51 cells; assay type: cell-based; details: 6 h treatment, read-out: IF Class (GSPT1 degradation, DC50)
T1 construct: CAL-51 cells were purchased from DSMZ (cat. Number ACC302); host or cells: CAL-51
T1 sequence (P15170 whole entry): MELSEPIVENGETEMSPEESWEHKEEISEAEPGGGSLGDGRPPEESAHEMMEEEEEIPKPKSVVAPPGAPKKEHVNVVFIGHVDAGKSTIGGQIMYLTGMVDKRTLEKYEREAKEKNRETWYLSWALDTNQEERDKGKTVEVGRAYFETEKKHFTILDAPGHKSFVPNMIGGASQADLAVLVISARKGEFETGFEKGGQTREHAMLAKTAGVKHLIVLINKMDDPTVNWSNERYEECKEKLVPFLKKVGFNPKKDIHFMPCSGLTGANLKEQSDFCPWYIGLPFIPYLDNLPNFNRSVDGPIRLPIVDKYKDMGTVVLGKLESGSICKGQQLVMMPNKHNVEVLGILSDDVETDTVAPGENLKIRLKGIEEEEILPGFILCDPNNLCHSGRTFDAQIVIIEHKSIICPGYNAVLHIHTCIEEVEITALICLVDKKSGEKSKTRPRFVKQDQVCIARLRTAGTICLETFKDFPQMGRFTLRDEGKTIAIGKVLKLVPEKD
T1 sequence (Q96SW2 whole entry): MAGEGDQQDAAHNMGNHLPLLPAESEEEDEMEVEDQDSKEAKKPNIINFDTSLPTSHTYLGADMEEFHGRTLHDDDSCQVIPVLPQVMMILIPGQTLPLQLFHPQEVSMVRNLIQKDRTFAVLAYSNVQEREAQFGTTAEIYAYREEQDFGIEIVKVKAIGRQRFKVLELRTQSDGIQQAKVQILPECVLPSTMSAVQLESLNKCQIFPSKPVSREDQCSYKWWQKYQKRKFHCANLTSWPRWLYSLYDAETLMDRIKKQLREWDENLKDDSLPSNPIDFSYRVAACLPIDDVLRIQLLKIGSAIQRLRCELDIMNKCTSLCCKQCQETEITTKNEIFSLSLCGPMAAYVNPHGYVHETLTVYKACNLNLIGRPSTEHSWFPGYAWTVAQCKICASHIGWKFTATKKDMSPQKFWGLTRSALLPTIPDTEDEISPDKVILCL
T1 sequence (Q16531 2-1140 partner limits assumed): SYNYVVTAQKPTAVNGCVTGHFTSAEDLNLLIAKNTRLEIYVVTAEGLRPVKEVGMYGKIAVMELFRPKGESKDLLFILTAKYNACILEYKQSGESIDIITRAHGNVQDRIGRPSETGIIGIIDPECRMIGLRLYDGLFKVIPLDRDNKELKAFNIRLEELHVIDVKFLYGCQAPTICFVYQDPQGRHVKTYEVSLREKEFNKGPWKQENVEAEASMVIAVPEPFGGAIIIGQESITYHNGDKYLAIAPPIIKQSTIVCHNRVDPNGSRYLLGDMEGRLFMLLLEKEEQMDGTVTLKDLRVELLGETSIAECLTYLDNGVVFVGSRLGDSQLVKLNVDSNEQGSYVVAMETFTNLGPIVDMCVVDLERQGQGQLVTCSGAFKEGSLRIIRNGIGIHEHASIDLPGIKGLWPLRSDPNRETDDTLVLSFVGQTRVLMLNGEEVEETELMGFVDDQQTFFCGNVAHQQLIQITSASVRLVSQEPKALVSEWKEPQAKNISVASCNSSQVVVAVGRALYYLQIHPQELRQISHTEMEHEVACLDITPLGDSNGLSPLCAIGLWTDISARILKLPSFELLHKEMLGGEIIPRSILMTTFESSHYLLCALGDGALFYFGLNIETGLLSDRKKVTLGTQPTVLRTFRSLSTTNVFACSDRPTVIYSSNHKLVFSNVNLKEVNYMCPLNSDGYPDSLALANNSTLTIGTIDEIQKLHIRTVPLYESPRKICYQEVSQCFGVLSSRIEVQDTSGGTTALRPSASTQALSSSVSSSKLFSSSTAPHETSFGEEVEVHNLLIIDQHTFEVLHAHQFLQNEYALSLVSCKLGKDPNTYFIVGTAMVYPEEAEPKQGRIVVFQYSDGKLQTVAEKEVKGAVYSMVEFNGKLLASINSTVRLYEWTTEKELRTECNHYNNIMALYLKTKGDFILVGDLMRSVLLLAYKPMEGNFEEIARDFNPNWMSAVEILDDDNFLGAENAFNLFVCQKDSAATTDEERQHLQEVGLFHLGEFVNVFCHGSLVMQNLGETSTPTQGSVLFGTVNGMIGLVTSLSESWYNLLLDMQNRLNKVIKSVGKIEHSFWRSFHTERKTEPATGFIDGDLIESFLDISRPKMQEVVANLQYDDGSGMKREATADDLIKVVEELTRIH
Procedure, shortened: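 CAL-51 cells treated 6 h with compound (30 μM to 0.1 nM), fixed, immunostained for GSPT1 with DAPI and phalloidin counterstains, imaged by high-content microscopy. Mean per-cell GSPT1 intensity normalized to controls; DC50 by non-linear regression.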

Sequence of CRBN-DDB1 (Q96SW2 whole entry): as the sequence (Q96SW2 whole entry) above
Sequence of CRBN-DDB1 (Q16531 whole entry partner): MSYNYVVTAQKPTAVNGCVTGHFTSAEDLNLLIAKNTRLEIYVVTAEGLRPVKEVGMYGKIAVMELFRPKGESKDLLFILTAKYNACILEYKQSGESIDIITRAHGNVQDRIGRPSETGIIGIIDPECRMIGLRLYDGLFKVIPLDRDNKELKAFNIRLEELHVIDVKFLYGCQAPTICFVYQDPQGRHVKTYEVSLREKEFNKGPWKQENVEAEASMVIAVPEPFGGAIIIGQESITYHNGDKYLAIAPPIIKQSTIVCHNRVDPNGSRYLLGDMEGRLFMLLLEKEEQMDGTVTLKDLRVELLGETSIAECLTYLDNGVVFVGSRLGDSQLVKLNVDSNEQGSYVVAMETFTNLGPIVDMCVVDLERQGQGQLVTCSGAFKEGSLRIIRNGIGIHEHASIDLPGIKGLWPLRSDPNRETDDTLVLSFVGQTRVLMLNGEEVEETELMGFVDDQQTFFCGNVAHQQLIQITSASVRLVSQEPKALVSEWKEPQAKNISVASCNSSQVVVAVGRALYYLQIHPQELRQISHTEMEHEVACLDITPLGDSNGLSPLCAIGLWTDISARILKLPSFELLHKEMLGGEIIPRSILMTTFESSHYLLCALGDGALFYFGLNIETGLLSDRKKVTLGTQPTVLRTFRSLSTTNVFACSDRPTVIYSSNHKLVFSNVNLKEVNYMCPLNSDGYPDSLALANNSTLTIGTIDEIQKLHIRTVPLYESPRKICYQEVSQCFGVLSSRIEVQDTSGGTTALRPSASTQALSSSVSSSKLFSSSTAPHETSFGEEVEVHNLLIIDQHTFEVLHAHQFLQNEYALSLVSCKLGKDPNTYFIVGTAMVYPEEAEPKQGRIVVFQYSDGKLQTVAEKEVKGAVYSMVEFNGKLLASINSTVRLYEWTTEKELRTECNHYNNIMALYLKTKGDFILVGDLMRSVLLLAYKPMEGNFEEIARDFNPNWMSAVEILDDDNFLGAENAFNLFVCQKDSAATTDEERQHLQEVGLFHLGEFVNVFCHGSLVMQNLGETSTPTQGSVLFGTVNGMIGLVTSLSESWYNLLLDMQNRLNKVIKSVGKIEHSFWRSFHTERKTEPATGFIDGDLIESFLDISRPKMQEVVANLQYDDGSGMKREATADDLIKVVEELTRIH

| Structure (SMILES) | IC50 [1] [nM] | DC50 [2] [nM] |
| --- | --- | --- |
| CC(C)CCNC(=O)OC1CN(c2cc(F)c(C3CCC(=O)NC3=O)c(F)c2)C1 (stereo not drawn) [Compound 125, 1-(4-(2,6-dioxopiperidin-3-yl)-3,5-difluorophenyl)azetidin-3-yl isopentylcarbamate] | 100 to 1000 | ≤ 30 |
| CC(C)(C)N1CC(NC(=O)OC2CN(c3cc(F)c(C4CCC(=O)NC4=O)c(F)c3)C2)C1 (stereo not drawn) [Compound 126, 1-(4-(2,6-dioxopiperidin-3-yl)-3,5-difluorophenyl)azetidin-3-yl(1-(tert-butyl)azetidin-3-yl)carbamate] | ≤ 100 | > 300 |
| O=C1CCC(c2c(F)cc(N3CC(OC(=O)NCC4CCCCC4)C3)cc2F)C(=O)N1 (stereo not drawn) [Compound 127, 1-(4-(2,6-dioxopiperidin-3-yl)-3,5-difluorophenyl)azetidin-3-yl(cyclohexylmethyl) carbamate] | 100 to 1000 | ≤ 30 |
| O=C1CCC(c2c(F)cc(N3CC(OC(=O)N[C@H]4C[C@H](c5ccccc5)C4)C3)cc2F)C(=O)N1 (stereo partly drawn) [Compound 128, 1-(4-(2,6-dioxopiperidin-3-yl)-3,5-difluorophenyl)azetidin-3-yl((1R,3R)-3 phenylcyclobutyl) carbamate] | 100 to 1000 | ≤ 30 |
| C[C@@H](NC(=O)OC1CN(c2cc(F)c(C3CCC(=O)NC3=O)c(F)c2)C1)C1CCCCC1 (stereo partly drawn) [Compound 129, 1-(4-(2,6-dioxopiperidin-3-yl)-3,5-difluorophenyl)azetidin-3-yl ((R)-1-cyclohexylethyl)carbamate] | ≤ 100 | 30 to 300 |
| C[C@H](NC(=O)OC1CN(c2cc(F)c(C3CCC(=O)NC3=O)c(F)c2)C1)c1ccccc1 (stereo partly drawn) [Compound 130, 1-(4-(2,6-dioxopiperidin-3-yl)-3,5-difluorophenyl)azetidin-3-yl((S)-1-phenylethyl) carbamate] | 100 to 1000 | > 300 |
| CCCCNC(=O)OC1CN(c2cc(F)c(C3CCC(=O)NC3=O)c(F)c2)C1 (stereo not drawn) [Compound 131, 1-(4-(2,6-dioxopiperidin-3-yl)-3,5-difluorophenyl)azetidin-3-yl butylcarbamate] | 100 to 1000 | 30 to 300 |
| CC(C)CNC(=O)OC1CN(c2cc(F)c(C3CCC(=O)NC3=O)c(F)c2)C1 (stereo not drawn) [Compound 132, 1-(4-(2,6-dioxopiperidin-3-yl)-3,5-difluorophenyl)azetidin-3-yl isobutylcarbamate] | 100 to 1000 | > 300 |
| CO[C@H]1CC[C@H](NC(=O)OC2CN(c3cc(F)c(C4CCC(=O)NC4=O)c(F)c3)C2)CC1 (stereo partly drawn) [Compound 133, 1-(4-(2,6-dioxopiperidin-3-yl)-3,5-difluorophenyl)azetidin-3-yl ((1R,4R)-4-methoxycyclohexyl)carbamate] | 100 to 1000 | 30 to 300 |
| O=C1CCC(c2c(F)cc(N3CC(OC(=O)NC4CCCCCC4)C3)cc2F)C(=O)N1 (stereo not drawn) [Compound 134, 1-(4-(2,6-dioxopiperidin-3-yl)-3,5-difluorophenyl)azetidin-3-yl cycloheptylcarbamate] | ≤ 100 | ≤ 30 |
| CC1(NC(=O)OC2CN(c3cc(F)c(C4CCC(=O)NC4=O)c(F)c3)C2)CCCCC1 (stereo not drawn) [Compound 135, 1-(4-(2,6-dioxopiperidin-3-yl)-3,5-difluorophenyl)azetidin-3-yl (1-methylcyclohexyl)carbamate] | ≤ 100 | ≤ 30 |
| O=C1CCC(c2c(F)cc(N3CC(OC(=O)NC4Cc5ccccc5C4)C3)cc2F)C(=O)N1 (stereo not drawn) [Compound 136, 1-(4-(2,6-dioxopiperidin-3-yl)-3,5-difluorophenyl)azetidin-3-yl (2,3-dihydro-1H-inden-2-yl)carbamate] | ≤ 100 | ≤ 30 |
| O=C1CCC(c2c(F)cc(N3CC(OC(=O)NCc4ccccc4)C3)cc2F)C(=O)N1 (stereo not drawn) [Compound 137, 1-(4-(2,6-dioxopiperidin-3-yl)-3,5-difluorophenyl)azetidin-3-yl benzylcarbamate] | ≤ 100 | 30 to 300 |
| O=C1CCC(c2c(F)cc(N3CC(OC(=O)NC4CC5(CCC5)C4)C3)cc2F)C(=O)N1 (stereo not drawn) [Compound 138, 1-(4-(2,6-dioxopiperidin-3-yl)-3,5-difluorophenyl)azetidin-3-yl spiro[3.3]heptan-2-ylcarbamate] | ≤ 100 | ≤ 30 |
| O=C1CCC(c2c(F)cc(N3CC(OC(=O)NCC4CCCC4)C3)cc2F)C(=O)N1 (stereo not drawn) [Compound 139, 1-(4-(2,6-dioxopiperidin-3-yl)-3,5-difluorophenyl)azetidin-3-yl (cyclopentylmethyl)carbamate] | ≤ 100 | ≤ 30 |
| O=C1CCC(c2c(F)cc(N3CC(OC(=O)N[C@@H]4CC5CCC4C5)C3)cc2F)C(=O)N1 (stereo partly drawn) [Compound 140, 1-(4-(2,6-dioxopiperidin-3-yl)-3,5-difluorophenyl)azetidin-3-yl(2R)-bicyclo[2.2.1]heptan-2-ylcarbamate] | ≤ 100 | 30 to 300 |
| O=C1CCC(c2c(F)cc(N3CC(OC(=O)NCC4COC4)C3)cc2F)C(=O)N1 (stereo not drawn) [Compound 141, 1-(4-(2,6-dioxopiperidin-3-yl)-3,5-difluorophenyl) azetidin-3-yl (oxetan-3-ylmethyl)carbamate] | ≤ 100 | > 300 |
| O=C1CCC(c2c(F)cc(N3CC(OC(=O)N4CCC(F)(F)CC4)C3)cc2F)C(=O)N1 (stereo not drawn) [Compound 142, 1-(4-(2,6-dioxopiperidin-3-yl)-3,5-difluorophenyl)azetidin-3-yl 4,4-difluoropiperidine-1-carboxylate] | 100 to 1000 | > 300 |
| O=C1CCC(c2c(F)cc(N3CC(OC(=O)N4CCCCC4)C3)cc2F)C(=O)N1 (stereo not drawn) [Compound 143, 1-(4-(2,6-dioxopiperidin-3-yl)-3,5-difluorophenyl)azetidin-3-yl piperidine-1-carboxylate] | 100 to 1000 | > 300 |
| O=C1CCC(c2c(F)cc(N3CC(OC(=O)N4CCCC4)C3)cc2F)C(=O)N1 (stereo not drawn) [Compound 144, 1-(4-(2,6-dioxopiperidin-3-yl)-3,5-difluorophenyl)azetidin-3-yl pyrrolidine-1-carboxylate] | 100 to 1000 | > 300 |
| Cc1ccc(N(C)C(=O)OC2CN(c3cc(F)c(C4CCC(=O)NC4=O)c(F)c3)C2)cc1Cl (stereo not drawn) [Compound 145, 1-(4-(2,6-dioxopiperidin-3-yl)-3,5-difluorophenyl)azetidin-3-yl(3-chloro-4-methylphenyl)(methyl) carbamate] | ≤ 100 | 30 to 300 |
